Test results from patent US7304186B2, “Synthetic method and novel chemical compounds” (Charterhouse Therapeutics Ltd., priority 2002, dated 2007).
Where two headings read alike, the source gives them in different places.

Experiments:
NF-κB = experiment: EMSA of NF-κB DNA-binding activity in TPA-stimulated Jurkat T cells; format: cell-based, Human; details: for NF-κB inhibition (in words): TPA-stimulated, EMSA
Experimental: (§1) Human lymphoblastoid Jurkat T cells were grown at 37° C. in a 5% CO2 atmosphere in RPM1 1640 medium (GIBCO BRL, Gaithersburg, Md., United States of America) supplemented with 10% fetal calf serum (FCS, Hyclone Europe Ltd, United Kingdom), 2 mM glutamine and antibiotics according to the method described by A. Rossi et al.^48 The test compound was stored as a 100% ethanolic stock solution (100 mM) or in dimethylsulfoxide (100 mM) and diluted to the appropriate concentration in culture medium at the time of use. Cells were treated with different concentrations of test compound for 1 hour and then stimulated with 12-O-tetradecanoylphorbol-13-acetate (TPA, 25 ng/ml), which is a strong inducer of NF-κB. Control cells received an equal amount of control diluent. After 3 hours, whole-cell extracts were prepared and subjected to analysis of DNA-binding activity by EMSA (Electrophoretic Mobility Shift Assay) for detection of HSF or NF-κB activation, according to the method described by A. Rossi et al.^48
(§2) Specificity of protein-DNA complexes was verified by immunoreactivity with polyclonal antibodies specific for p65 (Rel A) or for HSF-1, for NF-κB and HSF respectively. Quantitative evaluation of NF-κB- and HSF-DNA complex formation was determined by Molecular Dynamics PhosphorImager (MDP) analysis and was expressed in arbitrary units, as described by A. Rossi et al.^49 The results for (−)-Δ^12,14-15-deoxy-PG-J2 are shown in FIG. 1.

[1] = test system: parainfluenza Sendai virus (SV); experiment: Sendai virus replication in 37RC cells, virus yield by HAU titration; format: cell-based; details: for IC50: read-out: ID50 (50% inhibitory dose/concentration)
Experimental: (§3) Monkey kidney 37RC cells were grown at 37° C. under the conditions described above for human lymphoblastoid Jurkat T cells. The parainfluenza Sendai virus (SV) was grown in the allantoic cavity of 10 day-old embryonated eggs. Viral titre was expressed in haemagglutinating units (HAU) per ml; […]. Virus yield at 24 hours after infection was determined in the supernatant of infected cells by HAU titration.
(§4) The ID50 (the 50% inhibitory dose/concentration) value at 24 hours and the TD100 (the dose or concentration at which a tested compound is 100% toxic to uninfected cells, determined visually by microscopy) for both (−)-Δ^12,14-15-deoxy-PG-J2 and for compound CTC-150 were measured and the following results were obtained.

Monkey kidney 37RC cells = format: cell-based
Experimental: as §3, §4

HSF = experiment: EMSA of HSF DNA-binding activity in TPA-stimulated Jurkat T cells; format: cell-based, Human; details: 1 hour pre-treatment, TPA 25 ng/ml, extracts after 3 hours
Experimental: as §1, with “After 3 hours, whole-cell extracts were prepared and subjected to analysis of DNA-binding activity by EMSA (Electrophoretic Mobility Shift Assay) for detection of HSF or NF-κB activation, according to the method described by A. Rossi et al.^48” left out
as §2

## CCCCC/C=C/C=C1/C(=O)C=CC1C/C=C\CCCC(=O)O (stereo not drawn) [(−)-Δ^12,14-15-deoxy-PG-J2, reference compound]
NF-κB
  NF-κB inhibition (in words): potent inhibitor of NF-κB
[1]; 37RC cells, virus yield at 24 hours
  inhibition of Sendai virus replication (in words): potent inhibitor of Sendai virus replication
[1]; virus yield at 24 hours after infection, 37RC cells, 5 HAU/10^5 cells
  IC50: 3000 nM
Monkey kidney 37RC cells; uninfected 37RC cells, visually by microscopy
  TD100 (concentration at which compound is 100% toxic to uninfected cells): 50 µM

## CC1C=CC(=O)/C1=C/c1ccccc1 (stereo not shown) [CTC-150, 4-methyl-5-[1-phenyl-meth-(E)-ylidene]-cyclopent-2-enone]
NF-κB; Homo sapiens, 1 hour pre-treatment, TPA 25 ng/ml, extracts after 3 hours, read-out: concentration required to give an NF-κB inhibition to 50% of its original level (IC50)
  IC50: 7000 nM
NF-κB
  NF-κB inhibition (in words): potent inhibitor of NF-κB
[1]; Respirovirus muris, 24 h
  IC50: 700 nM
[1]; ratio of ID50 values, Sendai virus in 37RC cells
  antiviral activity relative to (−)-Δ^12,14-15-deoxy-PG-J2 (times more active): over 4
HSF
  concentration required to give an HSF activation to 200% of its original level: 0.02 µM
Monkey kidney 37RC cells; monkey
  TD100 (concentration at which compound is 100% toxic to uninfected cells): >50 µM
